Legend:
Experiment in all cases: cells
Type in all cases: functional, cell-based, Homo sapiens
D-247MG = conditions: Homo sapiens, D-247MG
Description: SANGER: Inhibition of human D-247MG cell growth in a cell viability assay.

D283 Med = conditions: Homo sapiens, D283 Med
Description: SANGER: Inhibition of human D-283MED cell growth in a cell viability assay.

D-423MG = conditions: Homo sapiens, D-423MG
Description: SANGER: Inhibition of human D-423MG cell growth in a cell viability assay.

DMS-114 = conditions: Homo sapiens, DMS-114
ES1 = conditions: Homo sapiens, ES1;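 also: growth inhibition of ES1 cells, read out with a cell viability assay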
Description: SANGER: Inhibition of human ES1 cell growth in a cell viability assay.

GAMG = conditions: Homo sapiens, GAMG;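 also: cell growth inhibition measured by a viability assay in the GAMG human cell line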
Description: SANGER: Inhibition of human GAMG cell growth in a cell viability assay.

HC-1 = conditions: Homo sapiens, HC-1;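 also: growth inhibition of HC-1 cells measured by a cell viability assay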
Description: SANGER: Inhibition of human HC-1 cell growth in a cell viability assay.

HT = conditions: Homo sapiens, HT
Description: SANGER: Inhibition of human HT cell growth in a cell viability assay.

HuP-T4 = conditions: Homo sapiens, HuP-T4;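 also: cell viability assay measuring how much HuP-T4 cell growth is inhibited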
Description: SANGER: Inhibition of human HuP-T4 cell growth in a cell viability assay.

IA-LM = conditions: Homo sapiens, IA-LM;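 also: cell viability assay measuring growth inhibition of human IA-LM cells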
Description: SANGER: Inhibition of human IA-LM cell growth in a cell viability assay.

LAN-6 = conditions: Homo sapiens, LAN-6;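 also: growth inhibition of LAN-6 cells, determined with a cell viability assay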
Description: SANGER: Inhibition of human LAN-6 cell growth in a cell viability assay.

MDA-MB-361 = conditions: Homo sapiens, MDA-MB-361
MKN-7 = conditions: Homo sapiens, MKN-7;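 also: growth inhibition of MKN-7 cells, read out with a cell viability assay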
Description: SANGER: Inhibition of human MKN7 cell growth in a cell viability assay.

NCI-H1693 = conditions: Homo sapiens, NCI-H1693;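 also: growth inhibition of the human cell line, read out with a cell viability assay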
Description: SANGER: Inhibition of human NCI-H1693 cell growth in a cell viability assay.

NCI-H1755 = conditions: Homo sapiens, NCI-H1755;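 also: cell viability readout used to measure growth inhibition of NCI-H1755 cells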
Description: SANGER: Inhibition of human NCI-H1755 cell growth in a cell viability assay.

NCI-H2029 = conditions: Homo sapiens, NCI-H2029;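 also: Read-out is a viability assay on the cultured cells, and IC50 is the concentration that suppresses cell growth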
Description: SANGER: Inhibition of human NCI-H2029 cell growth in a cell viability assay.

NCI-H2122 = conditions: Homo sapiens, NCI-H2122;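 also: growth inhibition of the cells, read out with a cell viability assay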
Description: SANGER: Inhibition of human NCI-H2122 cell growth in a cell viability assay.

NCI-H526 = conditions: Homo sapiens, NCI-H526;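 also: growth inhibition of the human NCI-H526 cell line, measured by a cell viability assay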
Description: SANGER: Inhibition of human NCI-H526 cell growth in a cell viability assay.

NCI-H747 = conditions: Homo sapiens, NCI-H747;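 also: growth inhibition of human NCI-H747 cells, read out by a cell viability assay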
Description: SANGER: Inhibition of human NCI-H747 cell growth in a cell viability assay.

RPMI-8226 = conditions: Homo sapiens, RPMI-8226
Description: SANGER: Inhibition of human RPMI-8226 cell growth in a cell viability assay.

S-117 = conditions: Homo sapiens, S-117
Description: SANGER: Inhibition of human S-117 cell growth in a cell viability assay.

SCC-15 = conditions: Homo sapiens, SCC-15;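 also: growth inhibition of SCC-15 cells, read out with a cell viability assay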
Description: SANGER: Inhibition of human SCC-15 cell growth in a cell viability assay.

SK-PN-DW = conditions: Homo sapiens, SK-PN-DW;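 also: growth inhibition measured with a viability assay on these cells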
Description: SANGER: Inhibition of human SK-PN-DW cell growth in a cell viability assay.

SN12C = conditions: Homo sapiens, SN12C;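 also: growth inhibition of human SN12C cells, measured by a cell viability assay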
Description: SANGER: Inhibition of human SN12C cell growth in a cell viability assay.

SW780 = conditions: Homo sapiens, SW780;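 also: growth inhibition of the cells, read out with a cell viability assay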
Description: SANGER: Inhibition of human SW780 cell growth in a cell viability assay.

23132-87 = conditions: Homo sapiens
Description: SANGER: Inhibition of human 23132-87 cell growth in a cell viability assay.

5637 = conditions: Homo sapiens
Description: SANGER: Inhibition of human 5637 cell growth in a cell viability assay.

647-V = conditions: Homo sapiens, 647-V;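 also: growth inhibition of 647-V cells, read out with a cell viability assay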
Description: SANGER: Inhibition of human 647-V cell growth in a cell viability assay.

A498 = conditions: Homo sapiens, A498;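 also: growth inhibition of human A498 cells, read out with a cell viability assay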
Description: SANGER: Inhibition of human A498 cell growth in a cell viability assay.

ABC-1 = conditions: Homo sapiens, ABC-1;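 also: growth inhibition of human ABC-1 cells, read out by a cell viability assay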
Description: SANGER: Inhibition of human ABC-1 cell growth in a cell viability assay.

AN3-CA = conditions: Homo sapiens, AN3-CA;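 also: growth inhibition of human AN3-CA cells measured by a cell viability assay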
Description: SANGER: Inhibition of human AN3-CA cell growth in a cell viability assay.

BXPC-3 = conditions: Homo sapiens, BXPC-3;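 also: growth inhibition of human BxPC-3 cells, read out by a cell viability assay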
Description: SANGER: Inhibition of human BxPC-3 cell growth in a cell viability assay.

CAL-85-1 = conditions: Homo sapiens, CAL-85-1;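 also: growth inhibition of human CAL-85-1 cells, read out with a cell viability assay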
Description: SANGER: Inhibition of human CAL-85-1 cell growth in a cell viability assay.

TE-10 = conditions: Homo sapiens, TE-10;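 also: growth inhibition of TE-10 cells, measured by a cell viability assay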
Description: SANGER: Inhibition of human TE-10 cell growth in a cell viability assay.

TE-11 = conditions: Homo sapiens, TE-11;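 also: growth inhibition of human TE-11 cells, read out by a cell viability assay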
Description: SANGER: Inhibition of human TE-11 cell growth in a cell viability assay.

YAPC = conditions: Homo sapiens, YAPC;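 also: growth inhibition of YAPC cells, measured with a cell viability assay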
Description: SANGER: Inhibition of human YAPC cell growth in a cell viability assay.

NCI-H720 = conditions: Homo sapiens, NCI-H720;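 also: growth inhibition of human NCI-H720 cells determined by a cell viability assay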
Description: SANGER: Inhibition of human NCI-H720 cell growth in a cell viability assay.

With `CS(=O)(=O)c1ccc(C(=O)Nc2ccc(Cl)c(-c3ccccn3)c2)c(Cl)c1` [VISMODEGIB] the IC50 (D-247MG) was over 10000 nM, the IC50 (D283 Med) was over 10000 nM and the IC50 (D-423MG) was over 10000 nM. It also gave an IC50 (DMS-114) of over 10000 nM, an IC50 (ES1) of over 10000 nM and an IC50 (GAMG) of over 10000 nM. For the same compound, the IC50 (HC-1) was over 10000 nM, the IC50 (HT) was over 10000 nM and the IC50 (HuP-T4) was over 10000 nM. It also gave an IC50 (IA-LM) of over 10000 nM, an IC50 (LAN-6) of over 10000 nM and an IC50 (MDA-MB-361) of over 10000 nM. It also gave an IC50 (MKN-7) of over 10000 nM, an IC50 (NCI-H1693) of over 10000 nM and an IC50 (NCI-H1755) of over 10000 nM. The IC50 (NCI-H2029) was over 10000 nM, the IC50 (NCI-H2122) was over 10000 nM and the IC50 (NCI-H526) was over 10000 nM. The IC50 (NCI-H747) was over 10000 nM, the IC50 (RPMI-8226) was over 10000 nM and the IC50 (S-117) was over 10000 nM. For the same compound, the IC50 (SCC-15) was over 10000 nM, the IC50 (SK-PN-DW) was over 10000 nM and the IC50 (SN12C) was over 10000 nM. The IC50 (SW780) was over 10000 nM, the IC50 (23132-87) was 4400 nM and the IC50 5637 was over 10000 nM. The IC50 (647-V) was over 10000 nM, the IC50 (A498) was over 10000 nM and the IC50 (ABC-1) was over 10000 nM. The IC50 (AN3-CA) was over 10000 nM, the IC50 (BXPC-3) was over 10000 nM and the IC50 (CAL-85-1) was over 10000 nM. It also gave an IC50 (TE-10) of over 10000 nM, an IC50 (TE-11) of over 10000 nM and an IC50 (YAPC) of over 10000 nM.

`CC(C)c1ccccc1Cc1cc(C(=O)Nc2ccc(S(=O)(=O)c3ccccc3C(C)(C)C)cc2)c(O)c(O)c1O` was tested, and the IC50 (D-247MG) was 936 nM, the IC50 (D283 Med) was 284 nM and the IC50 (D-423MG) was 473 nM. It also gave an IC50 (DMS-114) of 90.7 nM, an IC50 (ES1) of 130 nM and an IC50 (GAMG) of 212 nM. For the same compound, the IC50 (HuP-T4) was 543 nM, the IC50 (IA-LM) was 1560 nM and the IC50 (LAN-6) was 160 nM. The IC50 (MDA-MB-361) was 226 nM, the IC50 (MKN-7) was 4470 nM and the IC50 (NCI-H1693) was 1250 nM. For the same compound, the IC50 (NCI-H1755) was 1620 nM, the IC50 (NCI-H2029) was 14400 nM and the IC50 (NCI-H2122) was 538 nM. The IC50 (NCI-H747) was 130 nM, the IC50 (S-117) was 213 nM and the IC50 (SCC-15) was 223 nM. The IC50 (SN12C) was 1110 nM, the IC50 (SW780) was 5800 nM and the IC50 (23132-87) was 324 nM. The IC50 5637 was 552 nM, the IC50 (647-V) was 88.4 nM and the IC50 (A498) was 1490 nM. It also gave an IC50 (ABC-1) of 316 nM, an IC50 (AN3-CA) of 898 nM and an IC50 (BXPC-3) of 2480 nM. The IC50 (CAL-85-1) was 1430 nM, the IC50 (TE-10) was 1230 nM and the IC50 (TE-11) was 151 nM. It also gave an IC50 (YAPC) of 801 nM.

Compound `CO[C@H]1C[C@@H]2CC[C@@H](C)[C@@](O)(O2)C(=O)C(=O)N2CCCC[C@H]2C(=O)O[C@H]([C@H](C)C[C@@H]2CC[C@@H](OC(=O)C(C)(CO)CO)[C@H](OC)C2)CC(=O)[C@H](C)/C=C(\C)[C@@H](O)[C@@H](OC)C(=O)[C@H](C)C[C@H](C)/C=C/C=C/C=C/1C` [TEMSIROLIMUS] has an IC50 (D-247MG) of over 200 nM, an IC50 (D283 Med) of over 200 nM and an IC50 (D-423MG) of over 200 nM. It also gave an IC50 (DMS-114) of 119 nM, an IC50 (ES1) of 24.5 nM and an IC50 (GAMG) of 3.82 nM. For the same compound, the IC50 (HC-1) was 101 nM, the IC50 (HT) was 27.6 nM and the IC50 (HuP-T4) was over 200 nM. It also gave an IC50 (IA-LM) of over 200 nM, an IC50 (LAN-6) of over 200 nM and an IC50 (MDA-MB-361) of over 200 nM. It also gave an IC50 (MKN-7) of over 200 nM, an IC50 (NCI-H1693) of 92.2 nM and an IC50 (NCI-H1755) of over 200 nM. The IC50 (NCI-H2029) was over 200 nM, the IC50 (NCI-H2122) was over 200 nM and the IC50 (NCI-H526) was 61.6 nM. For the same compound, the IC50 (NCI-H720) was 9.62 nM, the IC50 (NCI-H747) was over 200 nM and the IC50 (RPMI-8226) was 4.15 nM. It also gave an IC50 (S-117) of 105 nM, an IC50 (SCC-15) of 128 nM and an IC50 (SK-PN-DW) of over 200 nM. It also gave an IC50 (SN12C) of 183 nM, an IC50 (SW780) of 4.83 nM and an IC50 (23132-87) of 64.7 nM. It also gave an IC50 5637 of over 200 nM, an IC50 (647-V) of over 200 nM and an IC50 (A498) of over 200 nM. For the same compound, the IC50 (ABC-1) was over 200 nM, the IC50 (AN3-CA) was 56.9 nM and the IC50 (BXPC-3) was over 200 nM. For the same compound, the IC50 (CAL-85-1) was over 200 nM, the IC50 (TE-10) was over 200 nM and the IC50 (TE-11) was over 200 nM. For the same compound, the IC50 (YAPC) was over 200 nM.

In the case of `Nc1cccc2c1CN(C1CCC(=O)NC1=O)C2=O` (stereo unspecified) [LENALIDOMIDE], the IC50 (D-247MG) is reported as over 5000 nM, the IC50 (D283 Med) is reported as over 5000 nM and the IC50 (D-423MG) is reported as over 5000 nM. It also gave an IC50 (DMS-114) of over 5000 nM, an IC50 (ES1) of over 5000 nM and an IC50 (GAMG) of over 5000 nM. The IC50 (HC-1) was over 5000 nM, the IC50 (HT) was over 5000 nM and the IC50 (HuP-T4) was over 5000 nM. It also gave an IC50 (IA-LM) of over 5000 nM, an IC50 (LAN-6) of over 5000 nM and an IC50 (MDA-MB-361) of over 5000 nM. The IC50 (MKN-7) was over 5000 nM, the IC50 (NCI-H1693) was over 5000 nM and the IC50 (NCI-H1755) was over 5000 nM. It also gave an IC50 (NCI-H2029) of over 5000 nM, an IC50 (NCI-H2122) of over 5000 nM and an IC50 (NCI-H526) of over 5000 nM. The IC50 (NCI-H720) was over 5000 nM, the IC50 (NCI-H747) was over 5000 nM and the IC50 (RPMI-8226) was over 5000 nM. The IC50 (S-117) was over 5000 nM, the IC50 (SCC-15) was over 5000 nM and the IC50 (SK-PN-DW) was over 5000 nM. The IC50 (SN12C) was over 5000 nM, the IC50 (SW780) was over 5000 nM and the IC50 (23132-87) was over 5000 nM. The IC50 5637 was over 5000 nM, the IC50 (647-V) was over 5000 nM and the IC50 (A498) was over 5000 nM. It also gave an IC50 (ABC-1) of over 5000 nM, an IC50 (AN3-CA) of over 5000 nM and an IC50 (BXPC-3) of over 5000 nM. For the same compound, the IC50 (CAL-85-1) was over 5000 nM, the IC50 (TE-10) was over 5000 nM and the IC50 (TE-11) was over 5000 nM. For the same compound, the IC50 (YAPC) was over 5000 nM.
